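Protocol summary: plate cells (96-well), add compound at 5 concentrations, incubate 48 h, interpolate endpoints linearly. TGI denotes the concentration required for complete inhibition of growth.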 Some results are limits rather than exact numbers.

Some test systems named below: SNB-75 CNS; KM12 colon; MOLT-4 leukemia; MALME-3M melanoma; UO-31 renal; SK-MEL-5 melanoma; SF-268 CNS; HCT-15 colon; OVCAR-3 ovarian; A498 renal.
Holding throughout (assay): NCI-60 cell line screen, 48 h

Regarding `O=C1CCC2=C(CCC2)N1CCc1ccc2c(c1)OCO2`, the TGI in the assay on SNB-75 CNS, with KM12 colon, in the assay on MOLT-4 leukemia, in the assay on MALME-3M melanoma, with UO-31 renal and in the assay on SK-MEL-5 melanoma was > 100 µM throughout. In addition, the TGI in the assay with SF-268 CNS and in the assay with HCT-15 colon was > 100 µM each time.

Regarding `COc1ccc(C2C(C(=O)O)=C(COC(C)=O)Oc3cc4c(cc32)OCO4)cc1` (stereo not drawn), the TGI in the assay with SNB-75 CNS, in the assay on MOLT-4 leukemia, in the assay on MALME-3M melanoma, with UO-31 renal, in the assay on SK-MEL-5 melanoma and with OVCAR-3 ovarian was > 100 µM in each case. For the same molecule, in the assay with HCT-15 colon, the TGI was > 100 µM.

Regarding `Brc1cccc(C2(CCCC3(c4cccc(Br)n4)OCCO3)OCCO2)n1`, the TGI in the assay with SNB-75 CNS was 84 µM; in the assay with KM12 colon, > 100 µM; in the assay on MOLT-4 leukemia it was > 100 µM; in the assay with UO-31 renal, > 100 µM; in the assay with SK-MEL-5 melanoma, > 100 µM; in the assay with SF-268 CNS it was 71.5 µM. Moreover, the TGI in the assay with OVCAR-3 ovarian, in the assay with A498 renal and in the assay on HCT-15 colon was > 100 µM each time.

Consider `Cc1ccc(S(=O)(=O)n2cc(-c3cnc(N)c(Br)n3)c3ccccc32)cc1`, for which the TGI in the assay with SNB-75 CNS is > 22.5 µM; in the assay with KM12 colon, > 40.1 µM; with MOLT-4 leukemia it was 10.7 µM; in the assay with UO-31 renal, > 100 µM; with SK-MEL-5 melanoma, 41.4 µM; with SF-268 CNS it was > 100 µM. For the same molecule, the TGI in the assay on OVCAR-3 ovarian was > 45.7 µM; with A498 renal it was > 24.8 µM; in the assay with HCT-15 colon, > 100 µM.

For the molecule `Cc1nnc(N)nc1/C=C\c1cccs1`, the TGI in the assay with KM12 colon is 31.5 µM; with MOLT-4 leukemia, > 100 µM; with MALME-3M melanoma, 29.4 µM; in the assay with UO-31 renal it was 40.9 µM; in the assay on SF-268 CNS it was 37.8 µM; in the assay with A498 renal, 49.7 µM. Further, in the assay with HCT-15 colon, the TGI came out at 29.6 µM.

With `CC(C)(C)OC(=O)NC(CCCCNC(=O)OCc1ccccc1)C(=O)NC(CCCCNC(=O)OCc1ccccc1)C(=O)ON1C(=O)CCC1=O` (stereo not drawn), the TGI with SNB-75 CNS, in the assay with KM12 colon, in the assay on MOLT-4 leukemia, in the assay with MALME-3M melanoma, in the assay with UO-31 renal and with SK-MEL-5 melanoma was > 100 µM in each case. In addition, in the assay with HCT-15 colon, the TGI is > 100 µM.

As to `O=c1[nH]c(=O)n(C2CC(O)C(CO)O2)cc1NN=NCc1ccccc1` (stereo not drawn), the TGI with SNB-75 CNS, with KM12 colon, in the assay on MOLT-4 leukemia, with MALME-3M melanoma, in the assay on UO-31 renal and in the assay with SK-MEL-5 melanoma was > 100 µM in each case. Besides, the TGI in the assay on SF-268 CNS, in the assay on OVCAR-3 ovarian and with HCT-15 colon was > 100 µM in each case.

As to `Sc1nnc(-c2ccccc2Nc2ccccc2-c2nnc(S)n2-c2ccccc2)n1-c1ccccc1`, the TGI in the assay on SNB-75 CNS is 90.8 µM; in the assay with KM12 colon, > 100 µM; with MOLT-4 leukemia it was 78.9 µM; with UO-31 renal it was > 100 µM; in the assay on SK-MEL-5 melanoma, 80.9 µM; in the assay on SF-268 CNS, > 100 µM. The TGI with OVCAR-3 ovarian and in the assay with HCT-15 colon was > 100 µM in each case.

Take `CCOC(=O)N(CC)c1c(C(F)(F)F)cc(-c2ccccc2)[nH]c1=O`: the TGI with KM12 colon is > 100 µM; in the assay with MOLT-4 leukemia it was 70.1 µM; in the assay on UO-31 renal, > 100 µM; in the assay on SK-MEL-5 melanoma it was > 100 µM; in the assay on OVCAR-3 ovarian it was > 100 µM; in the assay on A498 renal, > 100 µM. The TGI in the assay with HCT-15 colon is > 100 µM.

For the molecule `N=C(N)n1[nH]c2c(c1=O)CCC2`, the TGI with SNB-75 CNS, with MALME-3M melanoma, with UO-31 renal, with SK-MEL-5 melanoma, in the assay on SF-268 CNS and in the assay on OVCAR-3 ovarian was > 100 µM in each case. Moreover, in the assay on HCT-15 colon, the TGI is > 100 µM.

With `Cc1cc2nc3n(c2cc1C)C(c1c(F)cccc1F)SC3` (stereo not drawn), the TGI was > 100 µM in the assay with SNB-75 CNS; > 10 µM in the assay with KM12 colon; 47 µM in the assay with MOLT-4 leukemia; 65.1 µM with MALME-3M melanoma; > 10 µM in the assay on UO-31 renal; 28.2 µM with SK-MEL-5 melanoma. The TGI is 56.2 µM with SF-268 CNS, 91.2 µM in the assay with OVCAR-3 ovarian and > 10 µM in the assay on HCT-15 colon.

For `CCCCNC(=S)/N=C/c1c(O)c2ccccc2oc1=O`, the TGI in the assay on SNB-75 CNS, with KM12 colon, with MOLT-4 leukemia, in the assay with UO-31 renal, in the assay with SK-MEL-5 melanoma and with OVCAR-3 ovarian was > 100 µM throughout. Moreover, the TGI with HCT-15 colon is > 100 µM.

`CC1NOC(NS(=O)(=O)c2ccc(N=Nc3c(O)c(C(=O)O)cc4ccccc34)cc2)C1C` (stereo not drawn): the TGI with SNB-75 CNS, in the assay with KM12 colon, with MOLT-4 leukemia, in the assay on MALME-3M melanoma, with UO-31 renal and in the assay on SK-MEL-5 melanoma was > 100 µM each time. The TGI in the assay with SF-268 CNS, in the assay on OVCAR-3 ovarian and with HCT-15 colon was > 100 µM each time.

Turning to `ClCc1c(-c2ccccc2)nn(-c2ccccc2)c1CCl`, the TGI was 16.7 µM in the assay on SNB-75 CNS; 32.7 µM in the assay with KM12 colon; 30.6 µM with MALME-3M melanoma; 45 µM in the assay with UO-31 renal; 25.2 µM in the assay with SK-MEL-5 melanoma; 43.6 µM in the assay with SF-268 CNS. The TGI in the assay on OVCAR-3 ovarian is 26.3 µM; in the assay on HCT-15 colon, 27 µM.

As for `COc1ccc(OC)c(CNc2ccc(O)c(C(=O)NCCc3ccc(F)cc3)c2)c1`, the TGI with KM12 colon stood at 25.9 µM; with MOLT-4 leukemia, 21.5 µM; in the assay on UO-31 renal, 24.8 µM; with SK-MEL-5 melanoma it was 19.9 µM; with SF-268 CNS, 29.1 µM; in the assay on OVCAR-3 ovarian, 28.8 µM. Besides, the TGI in the assay with A498 renal came out at 59.9 µM; in the assay with HCT-15 colon, 44.9 µM.

As to `[N-]=[N+]=C1CNC(=O)NC1=O`, the TGI in the assay with SNB-75 CNS, in the assay on KM12 colon, in the assay on MOLT-4 leukemia, in the assay on MALME-3M melanoma, with UO-31 renal and in the assay with SK-MEL-5 melanoma was > 100 µM throughout. Moreover, the TGI in the assay with SF-268 CNS, in the assay with OVCAR-3 ovarian and with HCT-15 colon was > 100 µM in each case.

The values above are taken from PubChem BioAssay (NCI).
